# Assay results taken from US6737383B1, “Herbicidal oxadiazolidines” (priority 1999, dated 2004).
# Experiments:
# [1] = system: bedstraw; test: Test B pre/postemergence bedstraw; format: in vivo, Galium aparine
# Outline: (§1)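 Herbicidal effect was estimated by eye on a ten-point control scale after plants spent twelve to sixteen days in a greenhouse following soil or foliar treatment. Foliar sprays targeted plants at one to four leaves; all doses were formulated in a non-phytotoxic solvent with surfactant.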
# [2] = system: surinam grass; test: Test B pre/postemergence surinam grass; format: in vivo, Brachiaria decumbens
# Outline: as §1
# [3] = system: cocklebur; test: Test B pre/postemergence cocklebur; format: in vivo, Xanthium strumarium
# Outline: as §1
# [4] = system: corn; test: Test B pre/postemergence corn; format: in vivo, Zea mays
# Outline: as §1
# [5] = system: crabgrass; test: Test B pre/postemergence crabgrass; format: in vivo, Digitaria sanguinalis
# Outline: as §1
# [6] = system: giant foxtail; test: Test B pre/postemergence giant foxtail; format: in vivo, Setaria faberii
# Outline: as §1
# [7] = system: morningglory; test: Test B pre/postemergence morningglory; format: in vivo, Ipomoea hederacea
# Outline: as §1
# [8] = system: pigweed; test: Test B pre/postemergence pigweed; format: in vivo, Amaranthus retroflexus
# Outline: as §1
# [9] = system: rape; test: Test B pre/postemergence rape; format: in vivo, Brassica napus
# Outline: as §1
# [10] = system: soybean; test: Test B pre/postemergence soybean; format: in vivo, Glycine max
# Outline: as §1
# [11] = system: sugar beet; test: Test B pre/postemergence sugar beet; format: in vivo, Beta vulgaris
# Outline: as §1
# [12] = system: velvetleaf; test: Test B pre/postemergence velvetleaf; format: in vivo, Abutilon theophrasti
# Outline: as §1
# [13] = system: wheat; test: Test B pre/postemergence wheat; format: in vivo, Triticum aestivum
# Outline: as §1
# [14] = system: purple nutsedge; test: Test B pre/postemergence purple nutsedge; format: in vivo, Cyperus rotundus
# Outline: as §1
# [15] = system: duck salad; test: Test B flood test duck salad; format: in vivo, Heteranthera limosa
# Outline: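 Plants were grown to the 2-leaf stage before treatment with test chemical, then held in a greenhouse for twelve to sixteen days. Injury was visually rated against untreated controls on a 0–10 scale, where 0 is no effect and 10 is complete control.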
# [16] = Postemergence, Rate 125 g/ha, scale of 0 to 10 where 0 is no effect and 10 is complete control
# [17] = Preemergence, Rate 62 g/ha, scale 0 to 10 (0 no effect, 10 complete control)
# [18] = Preemergence, Rate 125 g/ha, 0 is no effect, 10 is complete control
# [19] = Preemergence, Rate 250 g/ha, scale 0 to 10, 0 is no effect, 10 is complete control
# [20] = Preemergence, Rate 500 g/ha, scale 0 to 10 (0 no effect, 10 complete control)
# [21] = Rate 62 g/ha, Postemergence, scale of 0 to 10 where 0 is no effect and 10 is complete control
# [22] = Rate 250 g/ha, Postemergence, scale 0 to 10, 0 is no effect, 10 is complete control
# [23] = Rate 500 g/ha, Postemergence, scale 0 to 10
compound,measurement,setting,value
CC(C)N(C(=O)n1oc(=O)n(Cc2ccccc2Cl)c1=O)c1ccc(F)cc1 [Compound 140],Bedstraw plant response rating,[1]; [16],5
same,Bedstraw plant response rating,[1]; [17],0
same,Bedstraw plant response rating (0 to 10 scale),[1]; [18],0
same,Bedstraw plant response rating,[1]; [19],0
same,Bedstraw plant response rating,[1]; [20],0
same,Bedstraw plant response rating,[1]; [21],4
same,"Plant response rating, Bedstraw",[1]; [22],5
same,Bedstraw plant response rating,"[1]; Rate 500 g/ha, Postemergence, scale 0 to 10, 0 no effect, 10 complete control",6
same,B. signalgrass plant response rating,[2]; [16],0
same,B. signalgrass plant response rating,[2]; [17],0
same,B. signalgrass plant response rating (0 to 10 scale),[2]; [18],0
same,B. signalgrass plant response rating,[2]; [19],0
same,B. signalgrass plant response rating,[2]; [20],2
same,B. signalgrass plant response rating,[2]; [21],0
same,"Plant response rating, B. signalgrass",[2]; [22],0
same,B. signalgrass plant response rating,"[2]; Rate 500 g/ha, Postemergence, scale of 0 to 10 where 0 is no effect and 10 is complete control",1
same,Cocklebur plant response rating,[3]; [16],0
same,Cocklebur plant response rating,[3]; [17],0
same,Cocklebur plant response rating (0 to 10 scale),[3]; [18],0
same,Cocklebur plant response rating,[3]; [19],0
same,Cocklebur plant response rating,[3]; [20],0
same,Cocklebur plant response rating,[3]; [21],0
same,"Plant response rating, Cocklebur",[3]; [22],3
same,Cocklebur plant response rating,[3]; [23],4
same,Corn plant response rating,[4]; [16],0
same,Corn plant response rating,[4]; [17],0
same,Corn plant response rating (0 to 10 scale),[4]; [18],0
same,Corn plant response rating,[4]; [19],0
same,Corn plant response rating,[4]; [20],0
same,Corn plant response rating,[4]; [21],0
same,"Plant response rating, Corn",[4]; [22],0
same,Corn plant response rating,[4]; [23],0
same,Crabgrass plant response rating,[5]; [16],1
same,Crabgrass plant response rating,[5]; [17],4
same,Crabgrass plant response rating (0 to 10 scale),[5]; [18],6
same,Crabgrass plant response rating,[5]; [19],5
same,Crabgrass plant response rating,[5]; [20],10
same,Crabgrass plant response rating,[5]; [21],0
same,"Plant response rating, Crabgrass",[5]; [22],9
same,Crabgrass plant response rating,[5]; [23],9
same,Giant foxtail plant response rating,[6]; [16],1
same,Giant foxtail plant response rating,[6]; [17],1
same,Giant foxtail plant response rating (0 to 10 scale),[6]; [18],8
same,Giant foxtail plant response rating,[6]; [20],10
same,Giant foxtail plant response rating,[6]; [21],0
same,"Plant response rating, Giant foxtail",[6]; [22],4
same,Giant foxtail plant response rating,[6]; [23],6
same,Morningglory plant response rating,[7]; [16],8
same,Morningglory plant response rating,[7]; [17],0
same,Morningglory plant response rating (0 to 10 scale),[7]; [18],0
same,Morningglory plant response rating,[7]; [19],0
same,Morningglory plant response rating,[7]; [20],0
same,Morningglory plant response rating,[7]; [21],4
same,"Plant response rating, Morningglory",[7]; [22],8
same,Morningglory plant response rating,[7]; [23],8
same,Redroot pigweed plant response rating,[8]; [16],1
same,Redroot pigweed plant response rating,[8]; [17],0
same,Redroot pigweed plant response rating (0 to 10 scale),[8]; [18],0
same,Redroot pigweed plant response rating,[8]; [19],0
same,Redroot pigweed plant response rating,[8]; [20],0
same,Redroot pigweed plant response rating,[8]; [21],0
same,"Plant response rating, Redroot pigweed",[8]; [22],2
same,Redroot pigweed plant response rating,[8]; [23],3
same,Rape plant response rating,[9]; [16],0
same,Rape plant response rating,[9]; [17],0
same,Rape plant response rating (0 to 10 scale),[9]; [18],0
same,Rape plant response rating,[9]; [19],0
same,Rape plant response rating,[9]; [20],0
same,Rape plant response rating,[9]; [21],0
same,"Plant response rating, Rape",[9]; [22],1
same,Rape plant response rating,[9]; [23],2
same,Soybean plant response rating,[10]; [16],3
same,Soybean plant response rating,[10]; [17],0
same,Soybean plant response rating (0 to 10 scale),[10]; [18],0
same,Soybean plant response rating,[10]; [19],0
same,Soybean plant response rating,[10]; [20],1
same,Soybean plant response rating,[10]; [21],3
same,"Plant response rating, Soybean",[10]; [22],3
same,Soybean plant response rating,[10]; [23],5
same,Sugarbeets plant response rating,[11]; [16],0
same,Sugarbeets plant response rating,[11]; [17],0
same,Sugarbeets plant response rating (0 to 10 scale),[11]; [18],0
same,Sugarbeets plant response rating,[11]; [19],0
same,Sugarbeets plant response rating,[11]; [20],1
same,Sugarbeets plant response rating,[11]; [21],0
same,"Plant response rating, Sugarbeets",[11]; [22],0
same,Sugarbeets plant response rating,[11]; [23],0
same,Velvetleaf plant response rating,[12]; [16],0
same,Velvetleaf plant response rating,[12]; [17],0
same,Velvetleaf plant response rating (0 to 10 scale),[12]; [18],0
same,Velvetleaf plant response rating,[12]; [19],0
same,Velvetleaf plant response rating,[12]; [20],0
same,Velvetleaf plant response rating,[12]; [21],0
same,"Plant response rating, Velvetleaf",[12]; [22],0
same,Velvetleaf plant response rating,[12]; [23],2
same,Wheat plant response rating,[13]; [16],0
same,Wheat plant response rating,[13]; [17],0
same,Wheat plant response rating (0 to 10 scale),[13]; [18],0
same,Wheat plant response rating,[13]; [19],0
same,Wheat plant response rating,[13]; [20],0
same,Wheat plant response rating,[13]; [21],0
same,"Plant response rating, Wheat",[13]; [22],0
same,Wheat plant response rating,[13]; [23],0
same,Nutsedge plant response rating,[14]; [16],0
same,Nutsedge plant response rating,[14]; [17],0
same,Nutsedge plant response rating (0 to 10 scale),[14]; [18],0
same,Nutsedge plant response rating,[14]; [19],0
same,Nutsedge plant response rating,[14]; [20],0
same,Nutsedge plant response rating,[14]; [21],0
same,"Plant response rating, Nutsedge",[14]; [22],0
same,Nutsedge plant response rating,[14]; [23],0
same,Ducksalad plant response rating,"[15]; Postemergence (flood test species), Rate 125 g/ha, scale of 0 to 10 where 0 is no effect and 10 is complete control",0
same,Ducksalad plant response rating,"[15]; Rate 62 g/ha, Postemergence section, flood test species, scale of 0 to 10 where 0 is no effect and 10 is complete control",0
same,"Plant response rating, Ducksalad","[15]; Rate 250 g/ha, Postemergence (flood test), scale 0 to 10, 0 is no effect, 10 is complete control",0
same,Ducksalad plant response rating,"[15]; Rate 500 g/ha, listed under Postemergence (flood test species), scale 0 to 10",0
